Measured values published in patent US20250074871A1, “PHENETHYLAMINES AND METHODS OF PREPARATION THEREOF” (priority 2022, published 2025).

Experiments:
Format in all cases: cell-based
[1] = target: T1, 5-HT1F (Homo sapiens, UniProt P30939); test: 5-HT receptor activity panel (Table 3); conditions: Table 3
T1 sequence (P30939 1-366): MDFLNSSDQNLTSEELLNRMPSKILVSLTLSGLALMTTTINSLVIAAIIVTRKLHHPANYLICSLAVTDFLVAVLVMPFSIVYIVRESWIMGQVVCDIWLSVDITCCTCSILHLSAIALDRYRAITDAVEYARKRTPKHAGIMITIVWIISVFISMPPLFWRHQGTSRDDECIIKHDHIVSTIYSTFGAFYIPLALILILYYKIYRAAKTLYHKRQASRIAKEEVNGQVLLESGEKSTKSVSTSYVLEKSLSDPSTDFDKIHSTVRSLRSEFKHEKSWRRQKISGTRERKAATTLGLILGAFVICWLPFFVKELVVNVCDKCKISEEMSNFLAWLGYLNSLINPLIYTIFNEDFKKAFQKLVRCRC

[2] = target: T2, 5-HT1A (Homo sapiens, UniProt P08908); test: 5-HT receptor activity panel (Table 3)
T2 sequence (P08908 1-422): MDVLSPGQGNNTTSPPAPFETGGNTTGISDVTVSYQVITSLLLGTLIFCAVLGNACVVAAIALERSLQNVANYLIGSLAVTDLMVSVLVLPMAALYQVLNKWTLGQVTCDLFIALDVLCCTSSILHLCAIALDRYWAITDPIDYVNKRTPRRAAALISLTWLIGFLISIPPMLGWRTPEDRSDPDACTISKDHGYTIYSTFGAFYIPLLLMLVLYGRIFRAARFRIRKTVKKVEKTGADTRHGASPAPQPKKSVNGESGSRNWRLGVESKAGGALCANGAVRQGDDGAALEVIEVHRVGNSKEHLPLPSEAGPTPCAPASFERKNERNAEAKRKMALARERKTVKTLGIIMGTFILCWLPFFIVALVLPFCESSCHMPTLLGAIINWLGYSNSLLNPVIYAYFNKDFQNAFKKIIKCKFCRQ

[3] = target: 5-HT1E (Homo sapiens, UniProt P28566); test: 5-HT receptor activity panel (Table 3)
Chain of 5-HT1E (P28566 whole entry, species assumed): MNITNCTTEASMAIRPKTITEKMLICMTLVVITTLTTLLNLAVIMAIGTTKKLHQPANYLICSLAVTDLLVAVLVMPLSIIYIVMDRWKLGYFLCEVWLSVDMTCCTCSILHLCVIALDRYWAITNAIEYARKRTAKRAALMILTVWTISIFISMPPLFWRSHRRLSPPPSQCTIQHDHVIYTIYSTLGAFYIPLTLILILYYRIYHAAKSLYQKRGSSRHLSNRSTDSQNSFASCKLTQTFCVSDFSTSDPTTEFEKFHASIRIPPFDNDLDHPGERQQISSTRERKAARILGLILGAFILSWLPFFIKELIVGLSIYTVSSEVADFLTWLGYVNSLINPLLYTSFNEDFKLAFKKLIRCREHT

[4] = target: T3, 5-HT2A receptor (Homo sapiens, UniProt P28223); test: 5-HT2A Gq dissociation BRET functional assay
T3 construct: expressed in transfected cells; host or cells: HEK293T
T3 sequence (P28223 whole entry): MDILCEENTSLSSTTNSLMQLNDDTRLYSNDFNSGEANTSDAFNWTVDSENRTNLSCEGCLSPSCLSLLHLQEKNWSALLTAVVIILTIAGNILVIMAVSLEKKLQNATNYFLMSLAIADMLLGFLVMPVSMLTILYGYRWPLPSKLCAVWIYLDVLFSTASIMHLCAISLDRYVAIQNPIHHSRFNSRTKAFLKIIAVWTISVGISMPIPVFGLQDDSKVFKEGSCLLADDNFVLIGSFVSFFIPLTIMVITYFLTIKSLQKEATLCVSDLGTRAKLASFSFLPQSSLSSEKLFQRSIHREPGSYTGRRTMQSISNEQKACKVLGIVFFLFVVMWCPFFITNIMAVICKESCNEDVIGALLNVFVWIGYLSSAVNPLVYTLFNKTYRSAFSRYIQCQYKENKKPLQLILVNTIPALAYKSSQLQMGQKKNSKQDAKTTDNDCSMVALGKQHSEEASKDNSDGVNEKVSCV

[5] = target: 5-HT1D (Homo sapiens, UniProt P28221); test: 5-HT receptor activity panel (Table 3)
Chain of 5-HT1D (P28221 whole entry, species assumed): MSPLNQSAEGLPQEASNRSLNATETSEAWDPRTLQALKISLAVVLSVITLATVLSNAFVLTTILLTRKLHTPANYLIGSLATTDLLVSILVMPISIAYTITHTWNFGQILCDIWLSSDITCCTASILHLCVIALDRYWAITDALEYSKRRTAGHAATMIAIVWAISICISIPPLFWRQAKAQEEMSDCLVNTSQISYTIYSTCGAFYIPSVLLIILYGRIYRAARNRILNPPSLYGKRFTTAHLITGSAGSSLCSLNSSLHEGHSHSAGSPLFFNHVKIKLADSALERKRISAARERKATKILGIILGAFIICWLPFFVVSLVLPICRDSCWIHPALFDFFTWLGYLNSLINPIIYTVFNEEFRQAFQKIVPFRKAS

[6] = target: 5-HT5A (Homo sapiens, UniProt P47898); test: 5-HT receptor activity panel (Table 3)
Chain of 5-HT5A (P47898 whole entry, species assumed): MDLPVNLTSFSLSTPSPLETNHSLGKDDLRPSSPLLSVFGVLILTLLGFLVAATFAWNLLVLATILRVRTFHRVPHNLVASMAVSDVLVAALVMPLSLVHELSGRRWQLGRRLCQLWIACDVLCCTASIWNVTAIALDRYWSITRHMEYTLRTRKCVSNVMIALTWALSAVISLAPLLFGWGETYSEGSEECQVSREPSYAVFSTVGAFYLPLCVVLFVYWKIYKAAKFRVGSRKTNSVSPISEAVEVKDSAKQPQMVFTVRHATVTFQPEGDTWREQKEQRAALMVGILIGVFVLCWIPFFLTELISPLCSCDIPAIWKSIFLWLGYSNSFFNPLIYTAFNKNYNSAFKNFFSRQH

[7] = target: 5-HT7 (Homo sapiens, UniProt P34969); test: 5-HT receptor activity panel (Table 3)
Chain of 5-HT7 (P34969 whole entry, species assumed): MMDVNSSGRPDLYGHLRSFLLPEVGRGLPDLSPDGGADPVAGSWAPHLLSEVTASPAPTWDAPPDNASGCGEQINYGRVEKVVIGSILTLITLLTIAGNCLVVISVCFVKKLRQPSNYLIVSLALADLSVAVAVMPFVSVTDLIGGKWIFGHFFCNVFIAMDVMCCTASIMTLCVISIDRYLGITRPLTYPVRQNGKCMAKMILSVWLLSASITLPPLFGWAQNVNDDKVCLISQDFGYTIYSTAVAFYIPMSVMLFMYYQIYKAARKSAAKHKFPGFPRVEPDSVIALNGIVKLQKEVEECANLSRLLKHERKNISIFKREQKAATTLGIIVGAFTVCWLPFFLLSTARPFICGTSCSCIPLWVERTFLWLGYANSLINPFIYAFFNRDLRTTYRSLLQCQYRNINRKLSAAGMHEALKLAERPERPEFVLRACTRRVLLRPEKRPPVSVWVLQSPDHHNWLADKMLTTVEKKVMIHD

[8] = target: 5-HT1B (Homo sapiens, UniProt P28222); test: 5-HT receptor activity panel (Table 3)
Chain of 5-HT1B (P28222 whole entry, species assumed): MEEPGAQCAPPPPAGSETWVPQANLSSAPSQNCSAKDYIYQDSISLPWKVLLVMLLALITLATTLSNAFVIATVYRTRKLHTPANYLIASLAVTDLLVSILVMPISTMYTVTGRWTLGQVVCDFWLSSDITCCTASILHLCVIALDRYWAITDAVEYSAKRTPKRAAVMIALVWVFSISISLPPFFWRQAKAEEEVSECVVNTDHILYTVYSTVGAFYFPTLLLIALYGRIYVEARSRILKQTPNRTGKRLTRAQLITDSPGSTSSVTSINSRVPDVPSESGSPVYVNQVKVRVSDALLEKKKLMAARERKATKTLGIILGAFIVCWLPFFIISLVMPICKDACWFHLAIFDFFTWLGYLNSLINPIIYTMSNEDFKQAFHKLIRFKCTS

[9] = target: 5-HT4 (Homo sapiens, UniProt Q13639); test: 5-HT receptor activity panel (Table 3)
Chain of 5-HT4 (Q13639 whole entry, species assumed): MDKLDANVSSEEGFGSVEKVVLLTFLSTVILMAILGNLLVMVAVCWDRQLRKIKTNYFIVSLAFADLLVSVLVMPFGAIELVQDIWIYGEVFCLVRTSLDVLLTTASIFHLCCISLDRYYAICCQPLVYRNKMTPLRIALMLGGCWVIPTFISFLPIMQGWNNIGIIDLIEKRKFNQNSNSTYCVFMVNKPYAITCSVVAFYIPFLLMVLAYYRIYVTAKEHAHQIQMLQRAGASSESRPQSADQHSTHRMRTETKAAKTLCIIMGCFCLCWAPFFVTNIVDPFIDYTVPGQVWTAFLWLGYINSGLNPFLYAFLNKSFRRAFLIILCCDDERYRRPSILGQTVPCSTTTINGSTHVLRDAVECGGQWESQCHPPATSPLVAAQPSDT

[10] = target: T4, 5-HT2B receptor (Homo sapiens, UniProt P41595); test: 5-HT2B Gq dissociation BRET functional assay
T4 construct: expressed in transfected cells; host or cells: HEK293T
T4 sequence (P41595 whole entry): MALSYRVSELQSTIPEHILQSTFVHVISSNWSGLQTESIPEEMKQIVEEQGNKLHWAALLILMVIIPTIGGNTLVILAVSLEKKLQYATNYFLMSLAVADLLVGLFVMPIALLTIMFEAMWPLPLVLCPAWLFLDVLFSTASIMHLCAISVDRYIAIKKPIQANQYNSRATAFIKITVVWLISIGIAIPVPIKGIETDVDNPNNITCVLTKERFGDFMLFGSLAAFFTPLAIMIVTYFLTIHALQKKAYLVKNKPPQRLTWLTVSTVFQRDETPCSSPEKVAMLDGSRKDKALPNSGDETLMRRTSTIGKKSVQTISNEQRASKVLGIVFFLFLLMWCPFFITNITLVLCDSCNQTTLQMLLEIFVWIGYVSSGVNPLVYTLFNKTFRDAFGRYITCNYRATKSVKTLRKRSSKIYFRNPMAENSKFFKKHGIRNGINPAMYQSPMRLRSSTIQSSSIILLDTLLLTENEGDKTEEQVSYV

[11] = target: 5-HT6 (Homo sapiens, UniProt P50406); test: 5-HT receptor activity panel (Table 3); conditions: Table 3
Chain of 5-HT6 (P50406 whole entry, species assumed): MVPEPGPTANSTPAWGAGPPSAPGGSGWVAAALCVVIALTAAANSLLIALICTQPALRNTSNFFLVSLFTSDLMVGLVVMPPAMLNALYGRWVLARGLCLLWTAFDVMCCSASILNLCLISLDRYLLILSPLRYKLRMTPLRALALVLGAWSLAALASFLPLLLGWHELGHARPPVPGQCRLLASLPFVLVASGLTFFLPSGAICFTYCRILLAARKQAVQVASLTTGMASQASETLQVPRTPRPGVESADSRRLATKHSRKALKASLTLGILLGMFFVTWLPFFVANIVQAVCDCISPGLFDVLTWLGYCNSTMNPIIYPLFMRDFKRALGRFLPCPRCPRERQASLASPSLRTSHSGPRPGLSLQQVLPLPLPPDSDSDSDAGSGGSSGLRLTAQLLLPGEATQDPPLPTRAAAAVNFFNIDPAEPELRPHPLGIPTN

[12] = Table 2, normalized to % 5-HT stimulation

CN(C)CCc1c[nH]c2cccc(O)c12 [psilocin, reference compound]
5-HT1F Eff, % [1]: 93%
EC50 [2]: 46.9 nM
5-HT1A Eff, % ([2]; Table 3): 93%
EC50 [3]: 10.4 nM
5-HT1E Eff, % ([3]; Table 3): 90%
5-HT2A BRET Eff % [4, 12]: 82%
5-HT2A Eff, % ([4]; Table 3 panel): 80%
EC50 [5]: 2.2 nM
5-HT1D Eff, % ([5]; Table 3): 102%
EC50 [6]: 349 nM
5-HT5A Eff, % ([6]; Table 3): 48%
EC50 [7]: 525 nM
5-HT7 Eff, % ([7]; Table 3): 86%
EC50 [8]: 14.3 nM
5-HT1B Eff, % ([8]; Table 3): 94%
EC50 [9]: 563 nM
5-HT4 Eff, % ([9]; Table 3): 81%
5-HT2B BRET Eff % [10, 12]: 63%
5-HT2B Eff, % ([10]; Table 3 panel): 32%
5-HT6 Eff, % [11]: 74%
EC50 ([11]; read-out: 5-HT6 EC50): 182 nM
